Assay results published in patent US20180319753A1, “MICROBIOCIDAL OXADIAZOLE DERIVATIVES” (SYNGENTA PARTICIPATIONS AG, priority 2015, published 2018).

How the values were obtained:
[1] = test system: Puccinia recondita f. Sp. Tritici; experiment: Puccinia recondita f. sp. tritici / wheat / leaf disc preventative (brown rust); format: in vivo; settings: foliar, 200 ppm in the applied formulation, wheat leaf segments cv. Kanzler, inoculated 1 day after application, assessed 7 to 9 days after application, read-out: disease control compared to untreated control leaf disks
Procedure: Leaf disks or leaf segments of various plant species are cut from plants grown in a greenhouse. The cut leaf disks or segments are placed in multiwell plates (24-well format) onto water agar. The leaf disks are sprayed with a test solution before (preventative) or after (curative) inoculation. Compounds to be tested are prepared as DMSO solutions (max. 10 mg/ml) which are diluted to the appropriate concentration with 0.025% Tween20 just before spraying. The inoculated leaf disks or segments are incubated under defined conditions (temperature, relative humidity, light, etc.) according to the respective test system. A single evaluation of disease level is carried out 3 to 14 days after inoculation, depending on the pathosystem. Percent disease control relative to the untreated check leaf disks or segments is then calculated. Wheat leaf segments cv. Kanzler were placed on agar in multiwell plates (24-well format) and sprayed with the formulated test compound diluted in water. The leaf disks were inoculated with a spore suspension of the fungus 1 day after application. The inoculated leaf segments were incubated at 19° C. and 75% relative humidity (rh) under a light regime of 12 hours light/12 hours darkness in a climate cabinet and the activity of a compound was assessed as percent disease control compared to untreated when an appropriate level of disease damage appears in untreated check leaf segments (7 to 9 days after application). The following compounds at 200 ppm in the applied formulation give at least 80% disease control in this test when compared to untreated control leaf disks under the same conditions, which show extensive disease development.

[2] = test system: Puccinia recondita f. Sp. Tritici; experiment: Puccinia recondita f. sp. tritici / wheat / leaf disc curative (brown rust); format: in vivo; settings: foliar, 200 ppm in the applied formulation, wheat leaf segments cv. Kanzler, applied 1 day after inoculation, assessed 6 to 8 days after application, read-out: disease control compared to untreated control leaf disks
Procedure: Leaf disks or leaf segments of various plant species are cut from plants grown in a greenhouse. The cut leaf disks or segments are placed in multiwell plates (24-well format) onto water agar. The leaf disks are sprayed with a test solution before (preventative) or after (curative) inoculation. Compounds to be tested are prepared as DMSO solutions (max. 10 mg/ml) which are diluted to the appropriate concentration with 0.025% Tween20 just before spraying. The inoculated leaf disks or segments are incubated under defined conditions (temperature, relative humidity, light, etc.) according to the respective test system. A single evaluation of disease level is carried out 3 to 14 days after inoculation, depending on the pathosystem. Percent disease control relative to the untreated check leaf disks or segments is then calculated.
Wheat leaf segments cv. Kanzler are placed on agar in multiwell plates (24-well format). The leaf segments are then inoculated with a spore suspension of the fungus. Plates were stored in darkness at 19° C. and 75% relative humidity. The formulated test compound diluted in water was applied 1 day after inoculation. The leaf segments were incubated at 19° C. and 75% relative humidity under a light regime of 12 hours light/12 hours darkness in a climate cabinet and the activity of a compound was assessed as percent disease control compared to untreated when an appropriate level of disease damage appears in untreated check leaf segments (6 to 8 days after application).
The following compounds at 200 ppm in the applied formulation give at least 80% disease control in this test when compared to untreated control leaf disks under the same conditions, which show extensive disease development.

Phakopsora pachyrhizi = Phakopsora pachyrhizi / soybean / leaf disc preventative (Asian soybean rust); format: in vivo; settings: foliar, 200 ppm in the applied formulation, soybean leaf disks, inoculated one day after application, assessed 12 to 14 days after application, read-out: disease control compared to untreated control leaf disks
Outline: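 Read-out is percent disease control relative to untreated check discs, assessed once untreated discs show adequate disease, 12 to 14 days after application. Compounds, tested at 200 ppm in the applied formulation, are sprayed onto soybean leaf discs one day before inoculation with a spore suspension.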

[3] = test system: Glomerella lagenarium (Colletotrichum lagenarium); experiment: Glomerella lagenarium (Colletotrichum lagenarium) liquid culture / cucumber / preventative (anthracnose); format: cell-based; settings: Colletotrichum orbiculare; 20 ppm in the applied formulation; liquid culture in PDB, 24° C.; 3 to 4 days after application; read-out: disease control compared to untreated control (inhibition of growth measured photometrically)
Outline: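 PDB broth seeded with cryo-stored conidia, added onto compound (DMSO solution) in 96-well plates; 24° C.; photometric growth read at 3–4 d post-application; % inhibition vs untreated check.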

SMILES	pest or weed control at 200 ppm [1] [%]	pest or weed control at 200 ppm [2] [%]	pest or weed control at 200 ppm (Phakopsora pachyrhizi) [%]	inhibition at 20 ppm [3] [%]	melting point [°C]
FC(F)(F)c1nc(-c2ccc(Sc3ccccc3)cc2)no1 [Compound 1.1, 3-(4-phenylsulfanylphenyl)-5-(trifluoromethyl)-1,2,4-oxadiazole]	≥ 80	≥ 80	≥ 80	≥ 80	59 to 62
COc1ccc(Sc2ccc(-c3noc(C(F)(F)F)n3)cc2)cc1 [Compound 1.2, 3-[4-(4-methoxyphenyl)sulfanylphenyl]-5-(trifluoromethyl)-1,2,4-oxadiazole]	≥ 80	≥ 80	≥ 80	≥ 80	55 to 60
FC(F)(F)c1nc(-c2ccc(SCCc3ccccc3)cc2)no1 [Compound 1.5, 3-[4-(2-phenylethylsulfanyl)phenyl]-5-(trifluoromethyl)-1,2,4-oxadiazole]	≥ 80	≥ 80	≥ 80	≥ 80	
FC(F)(F)c1nc(-c2ccc(CSc3ccccc3)nc2)no1 [Compound 1.23, 3-[6-(phenylsulfanylmethyl)-3-pyridyl]-5-(trifluoromethyl)-1,2,4-oxadiazole]	≥ 80	≥ 80		≥ 80	71 to 78
Fc1c(CSc2ccccc2)ccc(-c2noc(C(F)(F)F)n2)c1F [Compound 1.26, 3-[2,3-difluoro-4-(phenylsulfanylmethyl)phenyl]-5-(trifluoromethyl)-1,2,4-oxadiazole]	≥ 80	≥ 80	≥ 80	≥ 80	52 to 58
[O-][S+](c1ccccc1)c1ccc(-c2noc(C(F)(F)F)n2)cc1 (stereo not drawn) [Compound 2.1, 3-[4-(benzenesulfinyl)phenyl]-5-(trifluoromethyl)-1,2,4-oxadiazole]	≥ 80	≥ 80	≥ 80	≥ 80	97 to 106
COc1ccc([S+]([O-])c2ccc(-c3noc(C(F)(F)F)n3)cc2)cc1 (stereo not drawn) [Compound 2.2, 3-[4-(4-methoxyphenyl)sulfinylphenyl]-5-(trifluoromethyl)-1,2,4-oxadiazole]	≥ 80	≥ 80	≥ 80	≥ 80	93 to 98
[O-][S+](c1ccc(-c2noc(C(F)(F)F)n2)cc1)C1CCCCC1 (stereo not drawn) [Compound 2.3, 3-(4-cyclohexylsulfinylphenyl)-5-(trifluoromethyl)-1,2,4-oxadiazole]	≥ 80	≥ 80	≥ 80	≥ 80	108 to 114
[O-][S+](c1ccc(-c2noc(C(F)(F)F)n2)cc1)c1ccc(F)cc1F (stereo not drawn) [Compound 2.5, 3-[4-(2,4-difluorophenyl)sulfinyl-phenyl]-5-(trifluoromethyl)-1,2,4-oxadiazole]	≥ 80	≥ 80	≥ 80	≥ 80	118 to 123
[O-][S+](CC(F)(F)F)c1ccc(-c2noc(C(F)(F)F)n2)cc1 (stereo not drawn) [Compound 2.6, 3-[4-(2,2,2-trifluoroethylsulfinyl)phenyl]-5-(trifluoromethyl)-1,2,4-oxadiazole]	≥ 80	≥ 80	≥ 80	≥ 80	93 to 100
[O-][S+](CCc1ccccc1)c1ccc(-c2noc(C(F)(F)F)n2)cc1 (stereo not drawn) [Compound 2.8, 3-[4-(2-phenylethylsulfinyl)phenyl]-5-(trifluoromethyl)-1,2,4-oxadiazole]	≥ 80	≥ 80	≥ 80	≥ 80	81 to 85
[O-][S+](c1ccccc1)c1ccc(-c2noc(C(F)(F)F)n2)cn1 (stereo not drawn) [Compound 2.10, 3-[6-(benzenesulfinyl)-3-pyridyl]-5-(trifluoromethyl)-1,2,4-oxadiazole]	≥ 80	≥ 80	≥ 80	≥ 80	91 to 97
Cc1cc(C)cc([S+]([O-])c2ccc(-c3noc(C(F)(F)F)n3)cc2)c1 (stereo not drawn) [Compound 2.12, 3-[4-(3,5-dimethylphenyl)sulfinyl-phenyl]-5-(trifluoromethyl)-1,2,4-oxadiazole]	≥ 80	≥ 80	≥ 80	≥ 80	71 to 83
COc1ccccc1[S+]([O-])c1ccc(-c2noc(C(F)(F)F)n2)cc1 (stereo not drawn) [Compound 2.15, 3-[4-(2-methoxyphenyl)sulfinyl-phenyl]-5-(trifluoromethyl)-1,2,4-oxadiazole]	≥ 80	≥ 80	≥ 80		105 to 115
CC(C)(C)[S+]([O-])c1ccc(-c2noc(C(F)(F)F)n2)cc1 (stereo not drawn) [Compound 2.19, 3-(4-tert-butylsulfinylphenyl)-5-(trifluoromethyl)-1,2,4-oxadiazole]	≥ 80	≥ 80	≥ 80	≥ 80	
[O-][S+](c1ccc(-c2noc(C(F)(F)F)n2)cc1)C1CCCC1 (stereo not drawn) [Compound 2.23, 3-(4-cyclopentylsulfinylphenyl)-5-(trifluoromethyl)-1,2,4-oxadiazole]	≥ 80	≥ 80	≥ 80	≥ 80	
Cc1ccccc1[S+]([O-])c1ccc(-c2noc(C(F)(F)F)n2)cc1 (stereo not drawn) [Compound 2.24, 3-[4-(o-tolylsulfinyl)phenyl]-5-(trifluoromethyl)-1,2,4-oxadiazole]	≥ 80	≥ 80		≥ 80	100 to 103
[O-][S+](c1ccc(-c2noc(C(F)(F)F)n2)cn1)c1ccccc1F (stereo not drawn) [Compound 2.26, 3-[6-(2-fluorophenyl)sulfinyl-3-pyridyl]-5-(trifluoromethyl)-1,2,4-oxadiazole]	≥ 80	≥ 80		≥ 80	92 to 95
[O-][S+](Cc1ccc(-c2noc(C(F)(F)F)n2)cn1)c1ccccc1 (stereo not drawn) [Compound 2.28, 3-[6-(benzenesulfinylmethyl)-3-pyridyl]-5-(trifluoromethyl)-1,2,4-oxadiazole]	≥ 80	≥ 80	≥ 80	≥ 80	116 to 120
O=S(=O)(c1ccccc1)c1ccc(-c2noc(C(F)(F)F)n2)cc1 [Compound 3.1, 3-[4-(benzenesulfonyl)phenyl]-5-(trifluoromethyl)-1,2,4-oxadiazole]	≥ 80	≥ 80	≥ 80	≥ 80	128 to 132
